Assay results reported in patent US10457691B2, “Macrocyclic kinase inhibitors and uses thereof” (Dana-Farber Cancer Institute, Inc., priority 2014, dated 2019).

Columns and labels:
Assay type in all cases: biochemical
Details in all cases: read-out: Activity of the protein kinase when treated with compound I-1 (% control)
[1] = target: ERK8 (Homo sapiens, UniProt Q8TD08); assay: Protein kinase assay ([γ-32P] ATP), ERK8
Procedure: (§1) In another set of experiments, the activities of the compounds described herein against various protein kinases were determined according to the methods reported in Hastie et al., Nature Protocols, 2006, 1, 968-971.
(§2) Enzyme dilution buffer. This buffer consisted of 50 mM Tris-HCl, pH 7.5, 0.1 mM EGTA, 1 mg ml^−1 bovine serum albumin and 0.1% (vol/vol) 2-mercaptoethanol.
(§3) 10× concentrated assay buffer. An assay buffer of 500 mM Tris-HCl, pH 7.5, 1 mM EGTA, and 100 mM magnesium acetate was used for assay of a wide variety of protein kinases. In some experiments, other cofactors were included (e.g., calcium ions and calmodulin were included for assay of calcium-calmodulindependent protein kinases).
(§4) 1 mM [γ-^32P] ATP. The specific activity of the [γ-^32P] ATP solution was 1×10^5 to 1×10^6 c.p.m. per nmol depending on what was needed to produce an optimal signal/noise ratio. […] To measure the concentration of ATP, a sample of such a stock solution was diluted to 20 μM, and the absorbance of the diluted sample was measured at 259 nm. The absorbance of a 20-μM stock solution of ATP at 259 nm was about 0.31. […] ATP to produce a radioactivity of 1×10^5 to 1×10^6 c.p.m. per nmol. […]
(§5) 13) Measure radioactivity in the samples by Cerenkov counting (e.g., without liquid scintillation fluid) in a liquid scintillation counter using a “^32P program”. […]

[2] = target: PKBa (Homo sapiens, UniProt P31749); assay: Protein kinase assay ([γ-32P] ATP), PKBa
Sequence of PKBa (P31749 whole entry): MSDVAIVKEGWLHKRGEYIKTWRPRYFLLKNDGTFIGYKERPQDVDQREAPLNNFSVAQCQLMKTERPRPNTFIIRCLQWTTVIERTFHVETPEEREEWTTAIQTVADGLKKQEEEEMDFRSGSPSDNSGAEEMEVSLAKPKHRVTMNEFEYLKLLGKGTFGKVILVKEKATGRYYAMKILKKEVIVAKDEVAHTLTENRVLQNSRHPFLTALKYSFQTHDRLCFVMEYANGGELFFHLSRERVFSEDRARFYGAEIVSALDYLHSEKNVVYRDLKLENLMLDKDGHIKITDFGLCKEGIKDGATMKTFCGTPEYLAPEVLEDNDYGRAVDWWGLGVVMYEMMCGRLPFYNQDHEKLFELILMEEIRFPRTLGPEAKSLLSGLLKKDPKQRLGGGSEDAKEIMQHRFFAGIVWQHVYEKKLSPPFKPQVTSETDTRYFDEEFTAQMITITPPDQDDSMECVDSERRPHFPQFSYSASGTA
Procedure: as §1, §2, §3, §4, §5

[3] = target: HIPK1 (Homo sapiens, UniProt Q86Z02); assay: Protein kinase assay ([γ-32P] ATP), HIPK1
Procedure: as §1, §2, §3, §4, §5

[4] = target: EPH-B2 (Homo sapiens, UniProt P29323); assay: Protein kinase assay ([γ-32P] ATP), EPH-B2
Procedure: as §1, §2, §3, §4, §5

[5] = target: MARK3 (Homo sapiens, UniProt P27448); assay: Protein kinase assay ([γ-32P] ATP), MARK3
Procedure: as §1, §2, §3, §4, §5

[6] = target: TAK1 (Homo sapiens, UniProt O43318); assay: Protein kinase assay ([γ-32P] ATP), TAK1
Sequence of TAK1 (O43318 1-303 limits assumed): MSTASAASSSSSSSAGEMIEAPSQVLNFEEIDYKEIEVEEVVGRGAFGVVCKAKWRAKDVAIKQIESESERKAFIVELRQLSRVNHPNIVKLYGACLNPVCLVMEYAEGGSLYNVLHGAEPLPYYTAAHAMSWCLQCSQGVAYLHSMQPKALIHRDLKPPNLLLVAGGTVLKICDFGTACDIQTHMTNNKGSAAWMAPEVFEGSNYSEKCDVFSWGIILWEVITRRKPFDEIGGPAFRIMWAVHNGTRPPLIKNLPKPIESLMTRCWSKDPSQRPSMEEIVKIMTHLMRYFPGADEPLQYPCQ
Procedure: as §1, §2, §3, §4, §5

[7] = target: NEK6 (Homo sapiens, UniProt Q9HC98); assay: Protein kinase assay ([γ-32P] ATP), NEK6
Sequence of NEK6 (Q9HC98 whole entry): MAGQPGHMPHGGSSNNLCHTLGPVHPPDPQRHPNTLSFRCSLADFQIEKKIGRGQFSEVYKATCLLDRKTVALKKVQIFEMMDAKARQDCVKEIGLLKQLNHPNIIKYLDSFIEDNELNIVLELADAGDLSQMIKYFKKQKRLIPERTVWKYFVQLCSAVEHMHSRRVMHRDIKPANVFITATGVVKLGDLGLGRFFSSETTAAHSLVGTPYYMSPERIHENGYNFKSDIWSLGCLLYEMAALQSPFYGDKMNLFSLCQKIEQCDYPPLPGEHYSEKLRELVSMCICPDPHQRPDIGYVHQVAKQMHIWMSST
Procedure: as §1, §2, §3, §4, §5

[8] = target: Lck (Homo sapiens, UniProt P06239); assay: Protein kinase assay ([γ-32P] ATP), Lck
Sequence of Lck (P06239 whole entry): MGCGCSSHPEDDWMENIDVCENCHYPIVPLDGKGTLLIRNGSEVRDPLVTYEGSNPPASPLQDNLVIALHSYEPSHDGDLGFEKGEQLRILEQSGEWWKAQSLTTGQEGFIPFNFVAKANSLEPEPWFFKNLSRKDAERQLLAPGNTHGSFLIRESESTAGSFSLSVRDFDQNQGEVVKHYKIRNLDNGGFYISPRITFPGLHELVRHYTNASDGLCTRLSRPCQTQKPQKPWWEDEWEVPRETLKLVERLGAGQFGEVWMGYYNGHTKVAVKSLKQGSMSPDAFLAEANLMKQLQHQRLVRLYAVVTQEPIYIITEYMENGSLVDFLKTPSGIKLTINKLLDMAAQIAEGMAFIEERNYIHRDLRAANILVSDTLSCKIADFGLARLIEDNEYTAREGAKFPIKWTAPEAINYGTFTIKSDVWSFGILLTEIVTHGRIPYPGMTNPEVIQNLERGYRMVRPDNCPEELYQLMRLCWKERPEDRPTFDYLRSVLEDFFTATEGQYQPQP
Procedure: as §1, §2, §3, §4, §5

[9] = target: MKK6 (Homo sapiens, UniProt P52564); assay: Protein kinase assay ([γ-32P] ATP), MKK6
Sequence of MKK6 (P52564 whole entry): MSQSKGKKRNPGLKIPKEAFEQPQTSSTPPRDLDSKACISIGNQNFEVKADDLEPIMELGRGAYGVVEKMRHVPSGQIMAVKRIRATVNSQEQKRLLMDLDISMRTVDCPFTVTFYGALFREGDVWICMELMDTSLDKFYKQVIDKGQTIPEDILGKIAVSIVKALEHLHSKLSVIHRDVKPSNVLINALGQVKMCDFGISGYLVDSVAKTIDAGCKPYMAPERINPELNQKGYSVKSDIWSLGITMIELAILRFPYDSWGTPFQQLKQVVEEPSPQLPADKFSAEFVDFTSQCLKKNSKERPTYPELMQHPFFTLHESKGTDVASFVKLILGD
Procedure: as §1, §2, §3, §4, §5

[10] = target: DDR2 (Homo sapiens, UniProt Q16832); assay: Protein kinase assay ([γ-32P] ATP), DDR2
Sequence of DDR2 (Q16832 22-855): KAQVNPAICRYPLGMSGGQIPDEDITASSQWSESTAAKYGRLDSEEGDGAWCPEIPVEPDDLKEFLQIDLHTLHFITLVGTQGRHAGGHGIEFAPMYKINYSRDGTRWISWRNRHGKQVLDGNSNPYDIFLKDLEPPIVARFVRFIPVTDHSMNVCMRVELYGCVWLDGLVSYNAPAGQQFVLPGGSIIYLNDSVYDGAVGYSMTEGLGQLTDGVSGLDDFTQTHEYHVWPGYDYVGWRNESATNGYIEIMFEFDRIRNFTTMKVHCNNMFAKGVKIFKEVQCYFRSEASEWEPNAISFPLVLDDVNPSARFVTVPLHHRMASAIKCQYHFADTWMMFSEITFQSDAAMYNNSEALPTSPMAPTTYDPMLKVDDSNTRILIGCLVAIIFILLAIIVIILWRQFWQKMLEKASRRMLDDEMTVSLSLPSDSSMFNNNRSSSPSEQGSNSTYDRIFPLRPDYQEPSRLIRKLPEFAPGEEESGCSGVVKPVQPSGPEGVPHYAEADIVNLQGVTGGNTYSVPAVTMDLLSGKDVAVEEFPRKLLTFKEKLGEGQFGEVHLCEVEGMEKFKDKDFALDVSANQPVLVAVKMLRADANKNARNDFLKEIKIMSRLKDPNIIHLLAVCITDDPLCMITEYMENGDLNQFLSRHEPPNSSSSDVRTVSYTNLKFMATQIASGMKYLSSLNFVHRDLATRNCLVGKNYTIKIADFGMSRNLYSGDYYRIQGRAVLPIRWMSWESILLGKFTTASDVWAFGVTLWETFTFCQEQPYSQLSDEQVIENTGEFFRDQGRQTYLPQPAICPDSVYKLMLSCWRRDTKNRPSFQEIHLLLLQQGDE
Procedure: as §1, §2, §3, §4, §5

[11] = target: MARK4 (Homo sapiens, UniProt Q96L34); assay: Protein kinase assay ([γ-32P] ATP), MARK4
Sequence of MARK4 (Q96L34 whole entry): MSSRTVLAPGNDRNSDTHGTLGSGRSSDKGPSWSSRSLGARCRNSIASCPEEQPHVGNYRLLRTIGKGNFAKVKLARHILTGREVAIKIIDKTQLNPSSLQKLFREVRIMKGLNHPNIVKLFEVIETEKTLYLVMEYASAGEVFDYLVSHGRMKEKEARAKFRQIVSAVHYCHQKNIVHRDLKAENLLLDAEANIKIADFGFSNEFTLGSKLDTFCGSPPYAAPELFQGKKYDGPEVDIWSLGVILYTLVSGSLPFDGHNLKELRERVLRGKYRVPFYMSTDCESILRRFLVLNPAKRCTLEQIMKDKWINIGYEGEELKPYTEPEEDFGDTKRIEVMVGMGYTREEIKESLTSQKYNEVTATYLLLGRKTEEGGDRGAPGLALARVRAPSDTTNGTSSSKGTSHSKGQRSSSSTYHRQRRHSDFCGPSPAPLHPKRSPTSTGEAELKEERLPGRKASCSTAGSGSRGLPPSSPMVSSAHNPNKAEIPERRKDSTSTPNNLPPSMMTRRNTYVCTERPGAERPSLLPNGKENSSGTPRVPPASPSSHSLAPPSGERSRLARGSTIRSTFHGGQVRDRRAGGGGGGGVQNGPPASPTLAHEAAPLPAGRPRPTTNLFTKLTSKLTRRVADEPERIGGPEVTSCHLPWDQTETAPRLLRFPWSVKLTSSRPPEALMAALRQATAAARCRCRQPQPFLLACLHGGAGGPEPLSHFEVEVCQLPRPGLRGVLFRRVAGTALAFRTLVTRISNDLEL
Procedure: as §1, §2, §3, §4, §5

[12] = target: IKKe (Homo sapiens, UniProt Q14164); assay: Protein kinase assay ([γ-32P] ATP), IKKe
Procedure: as §1, §2, §3, §4, §5

[13] = target: PAK2 (Homo sapiens, UniProt Q13177); assay: Protein kinase assay ([γ-32P] ATP), PAK2
Procedure: as §1, §2, §3, §4, §5

[14] = target: EPH-B4 (Homo sapiens, UniProt P54760); assay: Protein kinase assay ([γ-32P] ATP), EPH-B4
Procedure: as §1, §2, §3, §4, §5

[15] = target: IRR (Homo sapiens, UniProt P14616); assay: Protein kinase assay ([γ-32P] ATP), IRR
Procedure: as §1, §2, §3, §4, §5

[16] = target: EPH-A4 (Homo sapiens, UniProt P54764); assay: Protein kinase assay ([γ-32P] ATP), EPH-A4
Sequence of EPH-A4 (P54764 20-986): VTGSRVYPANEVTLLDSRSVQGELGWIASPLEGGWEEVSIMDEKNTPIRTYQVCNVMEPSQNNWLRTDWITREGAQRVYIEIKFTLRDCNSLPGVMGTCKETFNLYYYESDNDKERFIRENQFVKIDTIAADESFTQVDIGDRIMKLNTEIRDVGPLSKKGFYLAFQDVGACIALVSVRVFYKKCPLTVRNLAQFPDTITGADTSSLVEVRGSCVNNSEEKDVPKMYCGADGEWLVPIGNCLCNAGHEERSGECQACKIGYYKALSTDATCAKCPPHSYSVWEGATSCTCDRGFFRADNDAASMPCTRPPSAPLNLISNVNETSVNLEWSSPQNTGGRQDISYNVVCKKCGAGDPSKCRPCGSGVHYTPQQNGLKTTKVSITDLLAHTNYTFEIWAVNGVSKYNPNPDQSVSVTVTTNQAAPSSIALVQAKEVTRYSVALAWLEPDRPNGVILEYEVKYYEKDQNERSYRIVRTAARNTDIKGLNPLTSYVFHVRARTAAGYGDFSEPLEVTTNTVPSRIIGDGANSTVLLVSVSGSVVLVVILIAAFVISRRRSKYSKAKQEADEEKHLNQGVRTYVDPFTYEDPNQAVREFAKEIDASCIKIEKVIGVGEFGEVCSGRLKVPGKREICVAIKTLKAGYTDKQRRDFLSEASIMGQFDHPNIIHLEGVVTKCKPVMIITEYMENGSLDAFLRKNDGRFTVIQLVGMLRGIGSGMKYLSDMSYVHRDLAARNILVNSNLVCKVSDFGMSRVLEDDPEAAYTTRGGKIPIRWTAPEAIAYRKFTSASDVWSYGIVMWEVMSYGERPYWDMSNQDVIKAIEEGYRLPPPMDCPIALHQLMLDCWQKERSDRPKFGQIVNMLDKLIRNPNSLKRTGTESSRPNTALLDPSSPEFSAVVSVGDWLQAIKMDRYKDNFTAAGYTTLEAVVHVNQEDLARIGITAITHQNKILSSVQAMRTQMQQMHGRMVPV
Procedure: as §1, §2, §3, §4, §5

[17] = target: JNK3 (Homo sapiens, UniProt P53779); assay: Protein kinase assay ([γ-32P] ATP), JNK3
Sequence of JNK3 (P53779 whole entry): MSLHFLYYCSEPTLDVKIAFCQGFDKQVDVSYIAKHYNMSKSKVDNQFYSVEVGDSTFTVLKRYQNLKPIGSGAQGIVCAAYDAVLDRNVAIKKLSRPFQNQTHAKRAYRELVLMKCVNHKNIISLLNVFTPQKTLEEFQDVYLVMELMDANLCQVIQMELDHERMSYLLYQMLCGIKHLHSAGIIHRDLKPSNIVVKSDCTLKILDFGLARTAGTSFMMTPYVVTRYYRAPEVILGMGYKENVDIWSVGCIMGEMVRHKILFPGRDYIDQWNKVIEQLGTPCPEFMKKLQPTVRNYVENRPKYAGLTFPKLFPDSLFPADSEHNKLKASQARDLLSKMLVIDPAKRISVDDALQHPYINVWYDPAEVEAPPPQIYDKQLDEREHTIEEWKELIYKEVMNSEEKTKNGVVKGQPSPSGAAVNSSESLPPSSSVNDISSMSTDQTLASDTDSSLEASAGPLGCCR
Procedure: as §1, §2, §3, §4, §5

[18] = 0.1 μM of compound I-1, DMSO control = 100%
[19] = 1 μM of compound I-1, DMSO control = 100%

SMILES: Cc1cccc(C)c1NC(=O)N1C/C=C\COc2cccc(c2)Nc2cc1ncn2 [Compound I-1]
- remaining activity at 0.1 µM [1, 18]: 99%
- remaining activity at 1 µM [1, 19]: 72%
- remaining activity at 0.1 µM [2, 18]: 99%
- remaining activity at 1 µM [2, 19]: 86%
- remaining activity at 0.1 µM [3, 18]: 99%
- remaining activity at 1 µM [3, 19]: 82%
- remaining activity at 0.1 µM [4, 18]: 54%
- remaining activity at 1 µM [4, 19]: 1%
- remaining activity at 0.1 µM [5, 18]: 90%
- remaining activity at 1 µM [5, 19]: 67%
- remaining activity at 0.1 µM [6, 18]: 105%
- remaining activity at 1 µM [6, 19]: 81%
- remaining activity at 0.1 µM [7, 18]: 91%
- remaining activity at 1 µM [7, 19]: 87%
- remaining activity at 0.1 µM [8, 18]: 4%
- remaining activity at 1 µM [8, 19]: 3%
- remaining activity at 0.1 µM [9, 18]: 101%
- remaining activity at 1 µM [9, 19]: 93%
- remaining activity at 0.1 µM [10, 18]: 28%
- remaining activity at 1 µM [10, 19]: 3%
- remaining activity at 0.1 µM [11, 18]: 103%
- remaining activity at 1 µM [11, 19]: 81%
- remaining activity at 0.1 µM [12, 18]: 111%
- remaining activity at 1 µM [12, 19]: 90%
- remaining activity at 0.1 µM [13, 18]: 100%
- remaining activity at 1 µM [13, 19]: 77%
- remaining activity at 0.1 µM [14, 18]: 55%
- remaining activity at 1 µM [14, 19]: 4%
- remaining activity at 0.1 µM [15, 18]: 98%
- remaining activity at 1 µM [15, 19]: 83%
- remaining activity at 0.1 µM [16, 18]: 8%
- remaining activity at 1 µM [16, 19]: 3%
- remaining activity at 0.1 µM [17, 18]: 51%
- remaining activity at 1 µM [17, 19]: 30%
